The source of these data is ChEMBL document CHEMBL5465560, “Selectivity Literature for EUbOPEN Chemogenomic Library” (2024).

For experiment [1], the target named is Casein kinase II subunit alpha (Homo sapiens, UniProt P68400). Kind of experiment: Selectivity interaction (Upstate Kinase Profiler service (Millipore)) EUB0000056c CSNK2A1. Particulars: at 1 µM.
Experiment [2] addresses Bone morphogenetic protein receptor type-1A (Homo sapiens, UniProt P36894). Kind of experiment: Selectivity interaction (ProQinase) EUB0000171b BMPR1A.
The target in experiment [3] is T1, Interleukin-1 receptor-associated kinase 3 (Homo sapiens) (UniProt Q9Y616).
T1 sequence (whole entry): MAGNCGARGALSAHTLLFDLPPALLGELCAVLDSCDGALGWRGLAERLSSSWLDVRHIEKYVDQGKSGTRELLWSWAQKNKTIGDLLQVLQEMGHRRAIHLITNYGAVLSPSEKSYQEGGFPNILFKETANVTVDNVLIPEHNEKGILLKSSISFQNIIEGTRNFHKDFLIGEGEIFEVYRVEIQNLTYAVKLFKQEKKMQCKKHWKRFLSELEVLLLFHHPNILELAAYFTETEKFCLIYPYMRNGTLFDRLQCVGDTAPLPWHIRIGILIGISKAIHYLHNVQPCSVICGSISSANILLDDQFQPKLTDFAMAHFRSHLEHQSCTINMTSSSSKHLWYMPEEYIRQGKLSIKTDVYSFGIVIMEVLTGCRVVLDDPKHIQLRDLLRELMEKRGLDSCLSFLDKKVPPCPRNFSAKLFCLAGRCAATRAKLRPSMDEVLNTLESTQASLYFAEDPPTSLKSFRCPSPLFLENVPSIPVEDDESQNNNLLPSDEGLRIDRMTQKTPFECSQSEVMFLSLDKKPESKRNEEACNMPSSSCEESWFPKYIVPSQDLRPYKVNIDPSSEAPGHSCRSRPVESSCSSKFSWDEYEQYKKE
Particulars: at 10 µM.

Experiment [4] deals with Serine/threonine-protein kinase 32B (Homo sapiens) (UniProt Q9NY57). In words: Selectivity interaction (Ambit KINOMEscan and KiNATiv profiling in Jurkat cells) EUB0000090b STK32B. It is filed as cell-based. The conditions noted are these: at 1 µM.
Experiment [5] addresses T2, Ephrin type-B receptor 4 (Homo sapiens) (UniProt P54760).
T2 sequence (whole entry): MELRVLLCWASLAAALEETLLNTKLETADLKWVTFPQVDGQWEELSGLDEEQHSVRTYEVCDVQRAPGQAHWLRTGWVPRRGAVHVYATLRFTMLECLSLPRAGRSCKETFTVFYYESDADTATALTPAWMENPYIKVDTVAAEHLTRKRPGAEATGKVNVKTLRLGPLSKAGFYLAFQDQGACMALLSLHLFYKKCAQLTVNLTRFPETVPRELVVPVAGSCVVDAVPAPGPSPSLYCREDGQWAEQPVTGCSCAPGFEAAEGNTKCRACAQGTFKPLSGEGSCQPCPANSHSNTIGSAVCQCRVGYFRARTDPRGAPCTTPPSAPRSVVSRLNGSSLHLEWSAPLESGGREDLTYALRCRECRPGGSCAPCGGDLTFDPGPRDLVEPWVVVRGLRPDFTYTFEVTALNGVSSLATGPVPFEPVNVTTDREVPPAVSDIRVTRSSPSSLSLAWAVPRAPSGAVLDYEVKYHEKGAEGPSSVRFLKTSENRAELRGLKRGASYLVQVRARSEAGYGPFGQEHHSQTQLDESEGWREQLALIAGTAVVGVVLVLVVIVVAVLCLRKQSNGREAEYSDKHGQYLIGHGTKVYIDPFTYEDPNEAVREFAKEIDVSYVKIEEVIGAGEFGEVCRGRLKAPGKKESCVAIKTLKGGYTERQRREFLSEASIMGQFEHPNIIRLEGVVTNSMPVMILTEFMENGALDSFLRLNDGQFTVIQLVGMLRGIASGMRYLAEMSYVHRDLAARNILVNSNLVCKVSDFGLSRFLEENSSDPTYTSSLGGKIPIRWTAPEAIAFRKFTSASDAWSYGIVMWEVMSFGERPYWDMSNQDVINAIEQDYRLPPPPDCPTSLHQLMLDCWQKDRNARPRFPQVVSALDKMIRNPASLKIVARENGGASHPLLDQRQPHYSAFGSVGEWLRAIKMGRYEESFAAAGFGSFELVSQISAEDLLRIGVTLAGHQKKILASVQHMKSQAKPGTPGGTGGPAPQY
In words: Selectivity interaction (Kinase screening (Nanosyn)) EUB0000604a EPHB4.

Experiment [6] can be described thus: Selectivity interaction (Eurofins CEREP Diversity Profile (receptors and ion channels)) EUB0000279b NPY. The conditions noted are these: at 10 µM.
Experiment [7] deals with T2, Ephrin type-B receptor 4 (Homo sapiens). In words: Selectivity interaction (KinomeScan (DiscoverX)) EUB0000045b EPHB4.
The target in experiment [8] is Homeodomain-interacting protein kinase 2 (Homo sapiens, UniProt Q9H2X6). Kind of experiment: Selectivity interaction (KinomeScan (DiscoverX)) EUB0000666a HIPK2. Particulars: at 10 µM.
Experiment [9] concerns the target T3, Eukaryotic elongation factor 2 kinase (Homo sapiens) (UniProt O00418).
T3 sequence (whole entry): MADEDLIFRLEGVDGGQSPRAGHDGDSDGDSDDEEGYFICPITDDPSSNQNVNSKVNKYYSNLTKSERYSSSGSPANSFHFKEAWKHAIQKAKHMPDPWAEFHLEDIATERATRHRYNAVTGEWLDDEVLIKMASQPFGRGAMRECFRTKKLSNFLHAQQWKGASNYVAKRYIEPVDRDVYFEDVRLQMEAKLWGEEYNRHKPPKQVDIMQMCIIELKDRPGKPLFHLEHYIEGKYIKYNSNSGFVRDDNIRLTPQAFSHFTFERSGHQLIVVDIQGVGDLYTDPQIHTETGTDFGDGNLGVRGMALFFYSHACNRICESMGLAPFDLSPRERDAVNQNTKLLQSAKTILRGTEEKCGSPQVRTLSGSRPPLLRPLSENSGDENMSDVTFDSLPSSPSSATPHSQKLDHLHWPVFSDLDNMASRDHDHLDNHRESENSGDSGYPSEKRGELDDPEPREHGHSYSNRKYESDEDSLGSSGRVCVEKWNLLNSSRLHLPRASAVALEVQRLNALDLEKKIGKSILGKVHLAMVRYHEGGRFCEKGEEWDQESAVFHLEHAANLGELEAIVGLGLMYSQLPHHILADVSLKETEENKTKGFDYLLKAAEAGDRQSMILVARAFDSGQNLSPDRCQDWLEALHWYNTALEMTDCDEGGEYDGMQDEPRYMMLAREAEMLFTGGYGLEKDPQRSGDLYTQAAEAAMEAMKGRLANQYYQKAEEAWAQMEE
Kind of experiment: Selectivity interaction (SelectScreen profiling (Invitrogen)) EUB0000607a EEF2K. The conditions noted are these: at 2 µM.

The target in experiment [10] is Tyrosine-protein kinase JAK1 (Homo sapiens, UniProt P23458). In words: Selectivity interaction (NanoBRET assay (HEK293T cells)) EUB0001559a JAK1. The experiment is classed as cell-based, HEK-293T.
For experiment [11], the target named is Wee1-like protein kinase (Homo sapiens) (UniProt P30291). In words: Selectivity interaction (KinomeScan (DiscoverX)) EUB0000595a WEE1. The conditions noted are these: at 10 µM.
Wee1-like protein kinase (Homo sapiens), sequence (P30291 whole entry, looked up): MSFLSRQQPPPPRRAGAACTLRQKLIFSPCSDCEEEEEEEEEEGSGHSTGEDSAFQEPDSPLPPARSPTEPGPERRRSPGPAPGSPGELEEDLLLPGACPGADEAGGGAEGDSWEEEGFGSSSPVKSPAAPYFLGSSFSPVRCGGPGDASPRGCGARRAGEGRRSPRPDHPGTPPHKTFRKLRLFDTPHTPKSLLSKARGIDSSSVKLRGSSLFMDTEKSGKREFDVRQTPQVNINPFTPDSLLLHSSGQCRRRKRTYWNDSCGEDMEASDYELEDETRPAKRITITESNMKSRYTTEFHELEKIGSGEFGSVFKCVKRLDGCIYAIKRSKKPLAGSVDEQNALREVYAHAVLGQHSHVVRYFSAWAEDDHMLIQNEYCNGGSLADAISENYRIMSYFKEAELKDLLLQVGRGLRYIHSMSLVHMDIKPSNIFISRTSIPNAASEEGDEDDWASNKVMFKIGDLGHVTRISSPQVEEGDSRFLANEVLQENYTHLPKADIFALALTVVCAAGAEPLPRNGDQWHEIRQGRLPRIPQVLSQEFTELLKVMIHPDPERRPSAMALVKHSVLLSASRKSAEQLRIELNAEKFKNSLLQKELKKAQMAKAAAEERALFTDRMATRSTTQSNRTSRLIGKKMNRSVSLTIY

Bone morphogenetic protein receptor type-1A, sequence (P36894 whole entry): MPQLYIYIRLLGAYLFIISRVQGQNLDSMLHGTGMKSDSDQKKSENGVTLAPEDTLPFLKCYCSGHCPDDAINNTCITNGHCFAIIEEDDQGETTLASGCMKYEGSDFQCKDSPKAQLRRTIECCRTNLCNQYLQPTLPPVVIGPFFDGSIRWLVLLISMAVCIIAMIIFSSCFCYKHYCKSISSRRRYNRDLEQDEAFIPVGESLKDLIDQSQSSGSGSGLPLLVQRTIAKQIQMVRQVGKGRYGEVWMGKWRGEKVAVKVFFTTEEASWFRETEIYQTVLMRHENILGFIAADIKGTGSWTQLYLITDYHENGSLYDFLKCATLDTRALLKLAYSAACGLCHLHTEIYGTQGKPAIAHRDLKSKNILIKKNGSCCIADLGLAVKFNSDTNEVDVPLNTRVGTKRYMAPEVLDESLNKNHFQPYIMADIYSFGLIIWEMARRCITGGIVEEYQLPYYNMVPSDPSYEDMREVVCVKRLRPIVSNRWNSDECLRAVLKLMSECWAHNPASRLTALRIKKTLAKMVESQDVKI
Homeodomain-interacting protein kinase 2, sequence (Q9H2X6 whole entry, looked up): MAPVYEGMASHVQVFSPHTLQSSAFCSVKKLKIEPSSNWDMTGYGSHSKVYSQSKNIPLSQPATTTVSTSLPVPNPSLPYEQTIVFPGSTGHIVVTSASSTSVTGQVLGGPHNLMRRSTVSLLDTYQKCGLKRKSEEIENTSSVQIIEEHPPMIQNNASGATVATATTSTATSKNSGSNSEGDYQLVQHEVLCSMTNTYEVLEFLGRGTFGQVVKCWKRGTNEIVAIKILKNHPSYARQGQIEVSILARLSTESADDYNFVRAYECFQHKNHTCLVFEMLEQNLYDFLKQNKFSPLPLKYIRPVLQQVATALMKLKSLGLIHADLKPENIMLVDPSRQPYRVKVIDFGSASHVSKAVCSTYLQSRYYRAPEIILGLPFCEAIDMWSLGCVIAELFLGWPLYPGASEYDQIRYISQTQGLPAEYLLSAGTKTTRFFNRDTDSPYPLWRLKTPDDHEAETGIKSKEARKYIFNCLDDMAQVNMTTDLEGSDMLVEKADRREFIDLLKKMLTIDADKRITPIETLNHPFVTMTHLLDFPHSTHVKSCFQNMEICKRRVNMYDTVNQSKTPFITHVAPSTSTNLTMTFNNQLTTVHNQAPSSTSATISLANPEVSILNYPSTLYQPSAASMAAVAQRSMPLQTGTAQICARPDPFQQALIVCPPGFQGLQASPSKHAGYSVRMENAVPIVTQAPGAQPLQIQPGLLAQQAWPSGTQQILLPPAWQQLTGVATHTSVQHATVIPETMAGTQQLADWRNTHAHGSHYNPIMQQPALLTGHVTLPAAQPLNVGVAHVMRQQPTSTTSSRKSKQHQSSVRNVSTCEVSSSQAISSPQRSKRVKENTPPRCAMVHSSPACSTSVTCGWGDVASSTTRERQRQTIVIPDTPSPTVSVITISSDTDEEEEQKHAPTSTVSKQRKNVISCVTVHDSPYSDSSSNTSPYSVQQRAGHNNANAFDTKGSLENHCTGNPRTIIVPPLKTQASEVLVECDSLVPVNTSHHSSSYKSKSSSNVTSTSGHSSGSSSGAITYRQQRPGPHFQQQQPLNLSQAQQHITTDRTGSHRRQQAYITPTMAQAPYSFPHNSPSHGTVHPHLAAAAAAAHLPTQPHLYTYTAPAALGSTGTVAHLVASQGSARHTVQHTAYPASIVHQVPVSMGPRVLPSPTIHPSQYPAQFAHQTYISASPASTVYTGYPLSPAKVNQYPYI
Serine/threonine-protein kinase 32B (Homo sapiens), sequence (Q9NY57 whole entry): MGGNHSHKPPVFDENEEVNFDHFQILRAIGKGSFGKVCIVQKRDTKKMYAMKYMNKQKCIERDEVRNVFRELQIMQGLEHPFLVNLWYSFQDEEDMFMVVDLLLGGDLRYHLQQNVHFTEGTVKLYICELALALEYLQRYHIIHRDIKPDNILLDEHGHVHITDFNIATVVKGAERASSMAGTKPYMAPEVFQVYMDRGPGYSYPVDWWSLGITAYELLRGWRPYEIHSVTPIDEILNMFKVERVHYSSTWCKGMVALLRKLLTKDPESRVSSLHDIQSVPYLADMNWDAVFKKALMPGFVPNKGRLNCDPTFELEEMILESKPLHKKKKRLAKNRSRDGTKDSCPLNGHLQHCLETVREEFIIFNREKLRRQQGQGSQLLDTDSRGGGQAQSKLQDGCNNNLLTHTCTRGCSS
Casein kinase II subunit alpha, sequence (P68400 whole entry, looked up): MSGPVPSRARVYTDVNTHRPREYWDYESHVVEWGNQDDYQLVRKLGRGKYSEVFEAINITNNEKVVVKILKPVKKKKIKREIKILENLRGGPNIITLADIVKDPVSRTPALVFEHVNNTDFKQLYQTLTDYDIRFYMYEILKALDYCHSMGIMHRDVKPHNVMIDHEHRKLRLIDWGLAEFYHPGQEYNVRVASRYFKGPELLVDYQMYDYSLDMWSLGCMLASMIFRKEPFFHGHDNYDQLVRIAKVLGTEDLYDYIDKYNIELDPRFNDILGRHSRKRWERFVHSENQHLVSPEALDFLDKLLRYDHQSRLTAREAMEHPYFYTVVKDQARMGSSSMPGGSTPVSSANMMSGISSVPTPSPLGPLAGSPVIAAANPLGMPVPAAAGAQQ
Tyrosine-protein kinase JAK1, sequence (P23458 whole entry): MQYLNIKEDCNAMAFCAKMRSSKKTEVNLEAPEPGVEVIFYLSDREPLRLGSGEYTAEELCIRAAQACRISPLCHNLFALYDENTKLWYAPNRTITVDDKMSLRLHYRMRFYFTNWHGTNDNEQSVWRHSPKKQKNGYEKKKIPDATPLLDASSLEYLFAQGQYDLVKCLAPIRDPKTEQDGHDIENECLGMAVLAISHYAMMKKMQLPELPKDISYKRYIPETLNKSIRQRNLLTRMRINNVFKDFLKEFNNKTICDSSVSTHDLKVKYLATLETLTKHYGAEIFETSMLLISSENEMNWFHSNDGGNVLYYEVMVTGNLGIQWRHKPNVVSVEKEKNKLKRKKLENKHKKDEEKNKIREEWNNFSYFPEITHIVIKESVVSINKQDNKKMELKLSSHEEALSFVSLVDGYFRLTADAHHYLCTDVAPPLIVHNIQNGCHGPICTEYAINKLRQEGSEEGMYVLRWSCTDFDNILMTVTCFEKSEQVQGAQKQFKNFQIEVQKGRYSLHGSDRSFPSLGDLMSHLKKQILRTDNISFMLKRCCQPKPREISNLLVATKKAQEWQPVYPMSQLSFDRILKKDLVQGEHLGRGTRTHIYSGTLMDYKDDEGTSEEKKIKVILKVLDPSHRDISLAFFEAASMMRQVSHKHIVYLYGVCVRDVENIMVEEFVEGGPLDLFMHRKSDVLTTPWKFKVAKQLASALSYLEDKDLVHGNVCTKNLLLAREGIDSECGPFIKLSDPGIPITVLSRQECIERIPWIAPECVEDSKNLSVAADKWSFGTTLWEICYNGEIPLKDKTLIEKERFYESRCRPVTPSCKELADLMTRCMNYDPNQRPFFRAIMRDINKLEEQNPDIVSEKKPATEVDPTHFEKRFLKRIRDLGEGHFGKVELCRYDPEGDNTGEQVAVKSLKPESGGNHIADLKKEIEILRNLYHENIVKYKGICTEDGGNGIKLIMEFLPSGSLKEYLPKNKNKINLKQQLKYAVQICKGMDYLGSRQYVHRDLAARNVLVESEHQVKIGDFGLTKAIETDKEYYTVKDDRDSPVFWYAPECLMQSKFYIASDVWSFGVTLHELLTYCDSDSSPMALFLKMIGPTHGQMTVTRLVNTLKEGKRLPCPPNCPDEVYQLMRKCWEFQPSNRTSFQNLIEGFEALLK

Turning to `Cc1ccc(-c2ccc3c(ccc4sc5c(c43)NC[C@@H](C)NC5=O)n2)cn1`, the % of inhibition in experiment [1] amounted to 15%.

Regarding `C=CC(=O)Nc1cccc(C(=O)Nc2ccc(Nc3cc(-c4[nH]c(SC)nc4C)ccn3)cc2)c1`, the % of control is 83% in experiment [2] (at 1 µM) and 88% in experiment [2] (at 5 µM).

`Cc1cc([C@@H](C)Nc2ccccc2C(=O)O)c2nc(N3CCOCC3)cc(=O)n2c1` [AZD-6482] showed a % of control in [3] of 58%.

Turning to `CN(C)C/C=C/C(=O)Nc1ccc(C(=O)N2CCCC(Nc3ncc(Cl)c(-c4c[nH]c5ccccc45)n3)C2)cc1` (stereo not drawn), the % of control in experiment [4] worked out at 90%.

In turn, `Cc1cnc(Nc2ccc(F)cc2Cl)nc1-c1c[nH]c(C(=O)N[C@H](CO)c2cccc(Cl)c2)c1` yielded a % of inhibition in experiment [5] of 0%.

In turn, `CC(=O)c1cc(-c2ccccc2OCC2CC2)c2ncccn12` registered a % of control in experiment [6] of 123%.

As to `C=CC(=O)Nc1cc(-n2c(=O)ccc3cnc4ccc(-c5ccc(NS(C)(=O)=O)cc5)cc4c32)ccc1C`, the % of control in experiment [7] (at 1 µM) and in experiment [7] (at 10 µM) was 100% in each case.

`O=C(NOC[C@H](O)CO)c1ccc(F)c(F)c1Nc1ccc(I)cc1F` came in with a % of control in experiment [8] of 100%.

`CNC(=O)Nc1ccc(-c2nc(N3CC4CCC(C3)O4)c3cnn(C4CCC5(CC4)OCCO5)c3n2)cc1` came in with a % of inhibition in experiment [9] of 1%.

One may read the EC50 as the concentration needed to bring the measured effect to its halfway point. The low end stands for an effect from little substance, the high end for a need for much substance. The compound `CN(C(=O)c1cnn2cccnc12)c1cc2c(cc1N1CCOCC1)C(=O)N(C[C@@H](F)C(C)(C)O)C2` came in with a 50% effective concentration (EC50) in experiment [10] of more than 50 µM.

`COCC(=O)NC/C=C/c1ccc2ncnc(Nc3ccc(Oc4ccc(C)nc4)c(C)c3)c2c1` [CP-724714]: the % of control in experiment [11] turned out to be 100%.
